Assay results published in patent US20130287918A1, “MICROBICIDAL COMPOSITION” (DUPONT NUTRITION DIOSCIENCES APS, priority 2010, published 2013).

Columns and labels:
Assay type in all cases: cell-based
[1] = system: Candida parapsilosis DCS 1090; assay: Minimal Inhibition Concentration Assay (MIC), 96 well liquid based; details: Lodderomyces parapsilosis, DCS1090; in blend FP1000S; read-out: actual presence of the individual compound in the blend at MIC level
Text: (§1) The target strains used for assessment of antimicrobial activity are isolates of different origin e.g. food spoilage isolates, spoilage organisms provided by a customer, national strain collections (e.g. DSMZ, ATCC) collected in the in house Danisco Culture Collection (DCS) (Danisco, Brabrand, Denmark), maintained at −86′C in suitable broth containing glycerol 50% (v/v). The strains were chosen to represent Gram negative and fungal strains. All species used were aerobic. Before each experiment, stock cultures were propagated through two consecutive growth cycles in suitable media and temperature. The overnight cultures are diluted in saline solution to obtain working cultures.
(§2) Yeast and mould strains were incubated at 25° C., and bacterial isolates were grown at 30° C. under aerobic conditions depending on the preferred conditions for the particular strain (Method no AP-002).
(§3) The Minimal Inhibition Concentration Assay (MIC) is a 96 well liquid based assay developed for an automated assessment system and performed essentially as described in (Method no AP-003). Indicator strains (table 2) are tested for inhibition of growth by the putative anti-microbial substances and combinations thereof, using a wide concentration range (depending on the compound), in this case by performing a ⅔-dilution series of each sample at pH 6.0 (±0.2)). From a 10 fold diluted overnight culture 5 μl of each strain was inoculated in one well corresponding to an approximate inoculation density of 10^3-10^4 cells/well. Media used were YM-broth for yeast and moulds and CASO-broth for bacterial isolates. Strains were incubated at 24° C. or 30° C. for 24 to 48 hours depending on the strain. The increase in optical density (O.D.) after incubation is compared to a growth control to estimate whether the substance has a bacteriostatic effect and to determine the MIC. MIC is defined as the lowest concentration of the antimicrobial that will inhibit measurable growth. A bacteriostatic effect is defined as the OD620 being less than or equal to 20% of the growth control after incubation.
(§4) To obtain more accurate estimates of the values, an Excel macro was used to process the raw data. The macro scans the raw data and finds the two concentrations that lie on either side of the O.D. 20% threshold value. It then pinpoints the actual concentration where the O.D. crosses the threshold, using linear correlation. All data are presented as the mean values of duplicates for each microorganism.
(§5) The MIC assays were run on a fully automated assessment system consisting of a 9-hotel Cytohotel (Thermo), a Biomek FxP pipetting robot (Beckman Coulter), an ORCA robotic arm on a 3 meter rails (Beckman Coulter), 2 Synergy HT spectrophotometers (Biotek), a Cytomat 6001 incubator (Thermo) and a Cytomat 2C incubator (Thermo).

[2] = system: Debaryomyces hansenii DCS 605; assay: as above; details: DCS605, in blend FP1000S, read-out: actual presence of the individual compound in the blend at MIC level
Text: as §1, §2, §3, §4, §5

[3] = system: Candida tropicalis DCS 604; assay: as above; details: DCS604, in blend FP1000S, read-out: actual presence of the individual compound in the blend at MIC level
Text: as §1, §2, §3, §4, §5

[4] = system: Salmonella enteritidis DCS 1152; assay: as above; details: Salmonella enterica, in blend FP1000S, read-out: actual presence of the individual compound in the blend at MIC level
Text: as §1, §2, §3, §4, §5

[5] = system: Pseudomonas fluorescens DCS 428; assay: as above; details: DCS428, in blend FP1000S, read-out: actual presence of the individual compound in the blend at MIC level
Text: as §1, §2, §3, §4, §5

Pichia anomala DCS 603 = assay: as above; details: Hansenula anomala, DCS603; in blend FP1000S; read-out: actual presence of the individual compound in the blend at MIC level
Text: as §1, §2, §3, §4, §5

[6] = system: Saccharomyces cerevisiae DCS 599; assay: as above; details: DCS599, in blend FP1000S, read-out: actual presence of the individual compound in the blend at MIC level
Text: as §1, §2, §3, §4, §5

Escherichia coli DCS 495 = assay: as above; details: DCS495, read-out: actual presence of the individual compound in the blend at MIC level
Text: as §1, §2, §3, §4, §5

[7] = system: Rhodotorula glutinis DCS 606; assay: as above; details: DCS606, in blend FP1000S, read-out: actual presence of the individual compound in the blend at MIC level
Text: as §1, §2, §3, §4, §5

Saccharomyces servazzii = assay: In vitro susceptibility of contaminant yeast by minimal inhibition concentrations; details: MicroGARD 200 at 1% (w/v); allyl isothiocyanate 0.01%; FP 1000-D1 at 1% (w/v)
Method: The dominating yeast in the control batch was traced back to Pichia spp., likely to be the added DCS 1175 strain. At what time point the contaminant yeast occurred is not known. The contaminant yeast. Saccharomyces servazzii, was tested in vitro for susceptibility towards MicroGARD® 200, allyl isothiocyanate, and the FP1000 variant FP 1000-D1 by determination of minimal inhibition concentrations (data not shown) The results confirmed a tolerance of the yeast against MicroGARD® 200 at 1% (w/v) and susceptibility towards allyl isothiocyanate 0.01% and FP 1000-D1 at 1% (w/v), respectively. Consequently, although eventually present in all batches, Saccharomyces servazzii could have been suppressed in the preserved batches, but was able to outgrow in batch D. The high acetic acid concentration in the unpreserved batch A and the competing yeast flora could have caused suppression of the contaminant in those samples.

[8] = system: Aspergillus parasiticus DCS 709; assay: Minimal Inhibition Concentration Assay (MIC), 96 well liquid based; details: DCS709, in blend FP1000S, read-out: actual presence of the individual compound in the blend at MIC level
Text: as §1
(§6) Mould spore inoculums were prepared as follows: approx. 2 ml of sterile demineralised water was used to wash the spores off an out-grown mould (minimum 5 day old plate). This suspension is transferred to a sterile container.
as §2
as §3, with “MIC is defined as the lowest concentration of the antimicrobial that will inhibit measurable growth. A bacteriostatic effect is defined as the OD620 being less than or equal to 20% of the growth control after incubation.” left out

[9] = system: Aspergillus niger DCS 1115; assay: as above; details: DCS1115, in blend FP1000S, read-out: actual presence of the individual compound in the blend at MIC level
Text: as §1, §6, §2
as §3, with “MIC is defined as the lowest concentration of the antimicrobial that will inhibit measurable growth. A bacteriostatic effect is defined as the OD620 being less than or equal to 20% of the growth control after incubation.” left out

[10] = system: Aspergillus versicolor DCS 1069; assay: as above; details: DCS1069, in blend FP1000S, read-out: actual presence of the individual compound in the blend at MIC level
Text: as §1, §6, §2
as §3, with “MIC is defined as the lowest concentration of the antimicrobial that will inhibit measurable growth. A bacteriostatic effect is defined as the OD620 being less than or equal to 20% of the growth control after incubation.” left out

C=CCN=C=S [AITC, allyl isothiocyanate]
MIC [1]: 67 µg/mL
MIC [2]: 213 µg/mL
MIC [3]: 235 µg/mL
MIC [4]: > 700 µg/mL
MIC [5]: 412 µg/mL
MIC (Pichia anomala DCS 603): 380 µg/mL
MIC [6]: 196 µg/mL
MIC (Escherichia coli DCS 495): > 700 µg/mL
MIC [7]: 200 µg/mL
in vitro susceptibility of contaminant yeast (data not shown) (Saccharomyces servazzii): susceptibility
MIC [8]: 38 µg/mL
MIC [9]: 106 µg/mL
MIC [10]: 143 µg/mL
